Data from patent US4260617A, “17-Cyclopropylmethyl-14-hydroxy-3-methoxymorphinan-6-one and method of treating pain with it” (SISA, Incorporated, priority 1979, dated 1981).

What was measured:
[1] = in words, prior art; cited from earlier work
[2] = system: acetic acid induced writhing in mice; test: Acetic acid mouse writhing test (analgesic effect); type: in vivo, male CD-1 mice; conditions: for ED50: Mus musculus, sc, subcutaneous, mice, acetic acid i.p. 15 minutes post drug, writhes in 20 minute interval; for ED50/AD50: ratio of mouse writhing ED50 to rat tail flick AD50
Experimental: The analgesic effects of test compounds were determined in mice by use of the acetic acid writhing test described by B. J. R. Whittle, Brit. J. Pharmacol., 22: 296 (1964). In this test at least three groups of five male CD-1 mice each were given subcutaneous doses of the test drug dissolved in either distilled water or distilled water acidified with HCl depending on the solubility of the compound. In all cases, 0.4 milliliter of a 0.75% V/V acetic acid in distilled water solution was administered intraperitoneally 15 minutes post drug. The number of writhes in a 20 minute interval were determined and compared with the number of writhes in control groups which had received only acetic acid.
Percent inhibition of writhing was calculated as: [formula]
The ED50 dose, i.e., the dose required to reduce the number of writhes by 50%, was determined graphically from a plot of % inhibition as a probit versus log dose. Confidence limits of 95% were calculated on the basis of those results falling in the range 16-84% inhibition. See Litchfield, J. T. and Wilcoxon, F., J. Pharmacol. Exp. Ther., 96, 99-113, (1949).

[3] = system: morphine effect in rat tail flick; test: Narcotic antagonist activity (modified rat tail flick test, antagonism of morphine); type: in vivo, male albino Wistar rats; conditions: for ED50: Rattus norvegicus, ip, 20 min, test drug intraperitoneally, rats, ED80 dose of morphine s.c. ten minutes later, retested 20 minutes after morphine, read-out: AD50 (the source's name)
Experimental: The narcotic anatagonist effects of test compounds were determined by a modification of the rat tail flick procedure of Harris and Pierson (J. Pharmacol. Exp. Ther. 143: 141 [1964]).
Male albino Wistar rats (100-120 g) were used for this study. A rat's tail is so placed so as to cover a photocell. Heat is applied by a lamp in a reflector with a timer being connected to the lamp and photocell so that the timer goes on when the light is turned on and is turned off when the photocell is uncovered. A rheostat, incorporated into a heating lamp, is used to adjust the intensity of the light fallng on the tail of the rat such that the rat's control reaction time is from two to four seconds. Animals with a control reaction time outside this range are rejected. The rheostat adjustment is made only if a significant proportion (more than 1 out of every 10 rats) of the reaction times are outside the range of 1.8 to 5.8 seconds. Groups of five rats were used each time, and two control times were determined at least 30 minutes apart. The test drug was given intraperitoneally and this was followed ten minutes later by an ED80 dose of morphine subcutaneously. The animals were retested at 20 minutes after the morphine injection. Control animals were given morphine only.
The data were calculated as follows: [formula]
The data were plotted on log-probit paper and AD50 values, i.e., the dose required to inhibit the morphine effect by 50% within 95% confidence limits, were determined by the method of Litchfield and Wilcoxon.

For `O=C1CCC2(O)C3Cc4ccc(O)cc4C2(CCN3CC2CC2)C1` (stereo not shown), the duration of action [1] is listed as “very long acting” and the “potency relative to A, cyclazocine or naloxone” value [1] is listed as “more potent than A (above), cyclazocine or naloxone”.

In the case of `COc1ccc2c(c1)[C@]13CCN(CC4CC4)[C@H](C2)[C@]1(O)CCC(=O)C3.Cl` [179-A-19, 17-cyclopropylmethyl-14-hydroxy-3-methoxymorphinan-6-one hydrochloride], the “more potent as an analgesic, by a factor” value ([2]; 179-A-19 versus 179-A-20) is reported as “greater than 7”, the ED50 [2] is reported as 0.3 mg/kg and the ED50/AD50 [2] is reported as 0.6. For the same molecule, the ED50 [3] was 0.5 mg/kg.

With `Cl.O=C1CC[C@@]2(O)[C@H]3Cc4ccc(O)cc4[C@@]2(CCN3CC2CC2)C1` [179-A-20, 17-cyclopropylmethyl-3,14-dihydroxymorphinan-6-one hydrochloride] the ED50 [2] was 2.2 mg/kg, the ED50/AD50 [2] was 26.83 and the “more potent in terms of narcotic antagonist activity, by a factor” value ([3]; 179-A-20 versus 179-A-19) was “about 6”. It also gave an ED50 [3] of 0.082 mg/kg.

In the case of `Oc1ccc2c(c1)C13CCCCC1(O)C(C2)N(CC1CC1)CC3` (stereo not shown) [A], the “analgesic / narcotic antagonist activity” value [1] is listed as “essentially a narcotic antagonist”.

In the case of `Oc1ccc2c(c1)C13CCCCC1(O)C(C2)N(CC1CCC1)CC3` (stereo not shown) [B], the “analgesic / narcotic antagonist activity” value [1] is given as “both analgesic and narcotic antagonist activity”.

For `C[C@H]1[C@H]2Cc3ccc(O)cc3[C@]1(C)CCN2CC1CC1` [cyclazocine], the “analgesic / narcotic antagonist activity” value [1] is listed as “mixed analgesic/narcotic antagonist activity”.
